{"source": "patent US20040053999A1", "about": "“Novel compounds and methods for synthesis and therapy” (priority 1997, published 2004)", "key": {"[1]": {"settings": "in vivo; cited from earlier work"}, "influenza": {"test_system": "influenza", "settings": "mice, Ryan et al. 1994, cited from earlier work"}, "[2]": {"settings": "mouse, in vivo, cited from earlier work"}, "neuraminidase": {"molecular_target": "T1, neuraminidase (UniProt P03468)", "T1 construct": "IC50; other: compound incubated in enzyme assay buffer before the test", "T1 sequence (P03468 whole entry)": "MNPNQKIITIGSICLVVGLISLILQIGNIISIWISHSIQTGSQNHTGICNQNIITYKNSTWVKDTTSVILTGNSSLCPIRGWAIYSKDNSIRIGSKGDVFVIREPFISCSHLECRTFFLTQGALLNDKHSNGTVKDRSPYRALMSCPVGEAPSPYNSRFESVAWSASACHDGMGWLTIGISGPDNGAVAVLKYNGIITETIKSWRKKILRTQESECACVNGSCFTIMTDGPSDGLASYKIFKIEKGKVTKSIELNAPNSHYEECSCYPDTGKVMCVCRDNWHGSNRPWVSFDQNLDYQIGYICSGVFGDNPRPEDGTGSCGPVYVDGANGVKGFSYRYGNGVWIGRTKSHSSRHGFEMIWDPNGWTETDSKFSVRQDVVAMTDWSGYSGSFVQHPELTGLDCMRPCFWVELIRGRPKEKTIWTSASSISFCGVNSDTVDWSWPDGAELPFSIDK", "format": "biochemical", "settings": "enzyme inhibition in vitro"}}}
{"smiles": "CC(=O)N[C@H]1[C@H]([C@H](O)[C@H](O)CO)OC(C(=O)O)=C[C@@H]1N=C(N)N", "note": "[GG167, 4-guanidino-2,4-dideoxy-2,3-dehydro-N-acetylneuraminic acid]", "values": [{"measurement": "Toxicity", "setting": "[1]", "result": "similarly nontoxic"}, {"measurement": "In vivo activity", "setting": "influenza; intraperitoneal administration", "result": "relatively poor"}, {"measurement": "Efficacy", "setting": "influenza; oral dosing", "result": "poor"}, {"measurement": "Bioavailability", "setting": "[2]; ip", "result": "good"}, {"measurement": "Oral bioavailability", "setting": "[2]; po", "result": "poor"}, {"measurement": "Clearance from the plasma", "setting": "[2]", "result": "rapid"}]}
{"smiles": "CC(=O)N[C@H]1[C@H](O)C=C(C(=O)O)C[C@@H]1N=C(N)N", "note": "[compound 94]", "values": [{"measurement": "IC50", "setting": "neuraminidase", "result": "< 1000", "unit": "nM"}]}
{"smiles": "COCO[C@@H]1C=C(C(=O)O)C[C@H](N)[C@H]1NC(C)=O", "note": "[compound 114]", "values": [{"measurement": "IC50", "setting": "neuraminidase", "result": "1000 to 10000", "unit": "nM"}]}
